# Values quoted from earlier work, collected in PMC9321963 (Birth Defects Research, 2022).
# Experiments:
# [1] = system: pregnant rats; settings: ref Mey, Babiuk, Clugston, Zhang, & Greer, [2003]; cited from earlier work
# [2] = system: rats; settings: ref Food and Drug Administration, Duvelisib Label, [2018]; cited from earlier work
# [3] = system: rabbits; settings: ref Food and Drug Administration, Duvelisib Label, [2018]; cited from earlier work
Structure (SMILES),anomalies in offspring after administration to pregnant rats [1],developmental toxicity [2],developmental toxicity [3]
"O=C(NCCCCCCCCNC(=O)C(Cl)Cl)C(Cl)Cl [bisdiamine, N,N‐octamethylenebis (dichloroacetamide)]","congenital anomalies in the offspring, including CDH defects",,
O=C(O)c1ccc(-c2ccccc2)cc1 [4‐biphenyl carboxylic acid],"congenital anomalies in the offspring, including CDH defects",,
C[C@H](Nc1ncnc2[nH]cnc12)c1cc2cccc(Cl)c2c(=O)n1-c1ccccc1 [Duvelisib],,developmental toxicant causing fetal losses and malformations,developmental toxicant causing fetal losses and malformations
"O=[N+]([O-])c1ccc(Oc2ccc(Cl)cc2Cl)cc1 [nitrofen, 2,4‐dichlorophenyl‐p‐nitrophenyl ether]","congenital anomalies in the offspring, including CDH defects",,
